{
  "source": "paper PMC3795738",
  "about": "(PLoS ONE, 2013)",
  "key": {"[1]": {"biological_target": "T1, CapB2 and CapA1Ct (GST-CapA1Ct) (Staphylococcus aureus, UniProt A8YPQ5+A8YPQ6)", "conditions": "10 µM ATP, 5 mM MgCl2, pH 7.5, 37°C; labelled compound; GST-CapA1Ct(ΔN222) as activator"}, "[2]": {"biological_target": "T1, CapB2 and CapA1Ct (GST-CapA1Ct)", "conditions": "10 µM ATP, 5 mM MgCl2, pH 7.5, 37°C; labelled compound; GST-CapA1Ct as activator"}, "[3]": {"biological_target": "T2, CapB1 (Met1 to Glu228), as it stands in the CapA1B1 chimera (Staphylococcus aureus, UniProt A8YPQ8 1-228)", "T2 construct": "also called Cap5B1; source: E. coli BL21(DE3), purified (IMAC, gel filtration) as part of the chimera CapA1B1", "T2 sequence": "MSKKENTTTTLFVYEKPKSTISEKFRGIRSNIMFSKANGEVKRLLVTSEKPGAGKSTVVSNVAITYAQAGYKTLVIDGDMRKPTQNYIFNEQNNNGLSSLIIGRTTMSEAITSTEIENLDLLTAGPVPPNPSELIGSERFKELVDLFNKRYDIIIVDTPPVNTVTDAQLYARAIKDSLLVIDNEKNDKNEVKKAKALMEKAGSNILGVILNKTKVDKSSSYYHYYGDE", "assay": "crystal structure", "conditions": "both partners purified"}},
  "note": "Read-outs that look alike come from different tables or passages of the source.",
  "data": [
    {"molecule": "Nc1ncnc2c1ncn2[C@@H]1O[C@H](COP(=O)(O)OP(=O)(O)OP(=O)(O)O)[C@@H](O)[C@H]1O", "note": "[ATP]", "values": [
      {"measurement": "autophosphorylation with [γ-32P]ATP, SDS-PAGE, autoradiography", "setting": "[1]", "result": "the Asn222 deletion did not affect the CapA1 ability to trigger CapB2 autophosphorylation"},
      {"measurement": "autophosphorylation with [γ-32P]ATP, SDS-PAGE, autoradiography", "setting": "[2]", "result": "CapB2 was incubated in the presence of radioactive ATP and different (wild type or mutated)"}
    ]},
    {"molecule": "VIFDKRIKDEEDVEKELGLPVLGSIQKFN (domain or fragment, also called Cap5A1; source: E. coli BL21(DE3), purified (IMAC, gel filtration) as part of the chimera CapA1B1)", "note": "[CapA1 C-terminal juxtamembrane fragment (Val194 to Asn222), as it stands in the CapA1B1 chimera]", "values": [
      {"measurement": "binding result", "setting": "[3]", "result": "binds"}
    ]}
  ]
}
